The source made the active and inactive calls.
How the values were obtained:
[1] = molecular target: Glucose-6-phosphate 1-dehydrogenase (Homo sapiens, UniProt P11413); assay: inhibition of Homo sapiens G6PD, dose series – biochemical, fluorescence, selectivity assay for P. falciparum G6PD inhibitor project, dose response (AID 504792); assay type: functional
CAAX prenyl protease 2 [2] = molecular target: T1, CAAX prenyl protease 2 (Saccharomyces cerevisiae S288c, UniProt Q03530); assay type: biochemical
T1 sequence (Q03530 whole entry): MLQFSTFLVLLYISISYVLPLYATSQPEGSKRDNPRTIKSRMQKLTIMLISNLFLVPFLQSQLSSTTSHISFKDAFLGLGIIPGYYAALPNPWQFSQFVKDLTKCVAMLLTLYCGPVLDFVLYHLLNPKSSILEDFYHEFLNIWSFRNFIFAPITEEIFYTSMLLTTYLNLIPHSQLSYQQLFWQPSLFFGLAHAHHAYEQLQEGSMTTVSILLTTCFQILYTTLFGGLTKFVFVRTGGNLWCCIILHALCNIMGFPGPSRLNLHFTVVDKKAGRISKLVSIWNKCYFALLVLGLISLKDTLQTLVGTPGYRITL

CAAX prenyl protease 2 [3] = molecular target: T2, CAAX prenyl protease 2 (Homo sapiens, UniProt Q9Y256); assay: inhibition of Ras-converting CAAX protease Rce1 – biochemical, yeast membranes, quenched-peptide fluorescence, cherry-pick, dose response (AID 588849)
T2 sequence (Q9Y256 whole entry): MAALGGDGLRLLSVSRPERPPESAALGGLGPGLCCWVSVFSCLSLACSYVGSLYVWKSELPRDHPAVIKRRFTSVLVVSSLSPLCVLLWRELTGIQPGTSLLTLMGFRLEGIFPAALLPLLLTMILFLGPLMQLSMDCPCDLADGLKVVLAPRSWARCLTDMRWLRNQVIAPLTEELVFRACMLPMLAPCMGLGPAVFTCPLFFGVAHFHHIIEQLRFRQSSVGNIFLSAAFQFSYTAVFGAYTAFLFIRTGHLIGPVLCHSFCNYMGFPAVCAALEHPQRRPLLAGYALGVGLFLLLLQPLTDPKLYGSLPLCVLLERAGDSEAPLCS

[4] = molecular target: T3, Short transient receptor potential channel 4 (Mus musculus, UniProt Q9QUQ5); assay: calcium entry via TRPC4 opening agents – cell-based, HEK293 TRPC4/mu-opioid, Fluo-4 calcium, dose response (AID 434937); assay type: functional
T3 sequence (Q9QUQ5 whole entry): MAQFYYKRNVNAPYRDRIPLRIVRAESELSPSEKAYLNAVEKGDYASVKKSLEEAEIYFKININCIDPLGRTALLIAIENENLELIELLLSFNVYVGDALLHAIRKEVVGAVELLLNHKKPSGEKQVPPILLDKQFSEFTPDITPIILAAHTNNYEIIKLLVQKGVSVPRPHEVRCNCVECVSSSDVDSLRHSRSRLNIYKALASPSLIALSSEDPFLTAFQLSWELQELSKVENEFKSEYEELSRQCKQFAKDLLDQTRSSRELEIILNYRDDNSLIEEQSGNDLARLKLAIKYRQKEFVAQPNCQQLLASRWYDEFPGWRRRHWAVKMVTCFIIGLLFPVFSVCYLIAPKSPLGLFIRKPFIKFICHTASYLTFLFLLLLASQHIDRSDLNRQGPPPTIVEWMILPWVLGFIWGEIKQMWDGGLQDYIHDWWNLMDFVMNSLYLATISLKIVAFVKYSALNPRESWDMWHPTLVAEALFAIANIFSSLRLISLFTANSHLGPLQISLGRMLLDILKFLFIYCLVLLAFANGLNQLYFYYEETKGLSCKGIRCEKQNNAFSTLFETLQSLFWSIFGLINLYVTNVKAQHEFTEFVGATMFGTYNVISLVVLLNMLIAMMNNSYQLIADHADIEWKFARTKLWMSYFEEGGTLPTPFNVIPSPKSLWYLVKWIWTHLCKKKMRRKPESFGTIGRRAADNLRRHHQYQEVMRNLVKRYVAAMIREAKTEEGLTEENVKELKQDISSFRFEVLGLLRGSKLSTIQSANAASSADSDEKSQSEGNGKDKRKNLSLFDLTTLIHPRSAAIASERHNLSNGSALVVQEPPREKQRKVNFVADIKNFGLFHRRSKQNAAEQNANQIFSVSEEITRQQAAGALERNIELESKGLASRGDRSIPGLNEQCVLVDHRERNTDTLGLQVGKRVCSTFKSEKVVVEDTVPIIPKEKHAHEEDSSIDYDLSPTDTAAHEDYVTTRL

HeLa = assay: ATP-based viability loss in HeLa cells – cell-based, CellTiter-Glo luminescence, cherry-pick samples, cytotoxicity control for MITF activator project, dose response (AID 540259); assay type: functional; details: Homo sapiens
HEK293 [5] = assay: inhibition of NOD1-driven NF-kB reporter – cell-based, luminescence, uHTS, primary screen (AID 1578); assay type: functional; details: Homo sapiens
HEK293 [6] = assay: cells; assay type: functional, cell-based; details: Homo sapiens
HEK293 [7] = assay: cells; assay type: functional, cell-based; details: Homo sapiens; remark: listed apart in the source
[8] = molecular target: Nucleotide-binding oligomerization domain-containing protein 2 (Homo sapiens, UniProt Q9HC29); assay: inhibition of NOD2-driven NF-kB reporter – cell-based, luminescence, uHTS, HEK293 (AID 1566); assay type: functional
HEK293 [9] = assay: NOD2 signaling inhibitors in MDP-stimulated cells, cell-based, uHTS, luminescence (AID 2001); assay type: functional; details: Homo sapiens
HEK293 [10] = assay: cells; assay type: functional, cell-based; details: Homo sapiens; remark: listed apart in the source
Trypsin = Trypsin (Sus scrofa, UniProt P00761); assay: trypsin protease activity blockade – biochemical, quenched peptide fluorescence, cherry-pick, selectivity assay for Rce1 protease inhibitor project, dose response (AID 488789)
Tumor necrosis factor = Tumor necrosis factor (Homo sapiens, UniProt P01375); assay: analog potency on TNFa NF-kB signaling – cell-based, revised, SAR follow-up (AID 2337); assay type: functional
[11] = molecular target: T4, Nucleotide-binding oligomerization domain-containing protein 1 (Homo sapiens, UniProt Q9Y239); assay: blockers of NOD1 pathway activity – revised, SAR follow-up (AID 2333); assay type: functional
T4 sequence (Q9Y239 whole entry): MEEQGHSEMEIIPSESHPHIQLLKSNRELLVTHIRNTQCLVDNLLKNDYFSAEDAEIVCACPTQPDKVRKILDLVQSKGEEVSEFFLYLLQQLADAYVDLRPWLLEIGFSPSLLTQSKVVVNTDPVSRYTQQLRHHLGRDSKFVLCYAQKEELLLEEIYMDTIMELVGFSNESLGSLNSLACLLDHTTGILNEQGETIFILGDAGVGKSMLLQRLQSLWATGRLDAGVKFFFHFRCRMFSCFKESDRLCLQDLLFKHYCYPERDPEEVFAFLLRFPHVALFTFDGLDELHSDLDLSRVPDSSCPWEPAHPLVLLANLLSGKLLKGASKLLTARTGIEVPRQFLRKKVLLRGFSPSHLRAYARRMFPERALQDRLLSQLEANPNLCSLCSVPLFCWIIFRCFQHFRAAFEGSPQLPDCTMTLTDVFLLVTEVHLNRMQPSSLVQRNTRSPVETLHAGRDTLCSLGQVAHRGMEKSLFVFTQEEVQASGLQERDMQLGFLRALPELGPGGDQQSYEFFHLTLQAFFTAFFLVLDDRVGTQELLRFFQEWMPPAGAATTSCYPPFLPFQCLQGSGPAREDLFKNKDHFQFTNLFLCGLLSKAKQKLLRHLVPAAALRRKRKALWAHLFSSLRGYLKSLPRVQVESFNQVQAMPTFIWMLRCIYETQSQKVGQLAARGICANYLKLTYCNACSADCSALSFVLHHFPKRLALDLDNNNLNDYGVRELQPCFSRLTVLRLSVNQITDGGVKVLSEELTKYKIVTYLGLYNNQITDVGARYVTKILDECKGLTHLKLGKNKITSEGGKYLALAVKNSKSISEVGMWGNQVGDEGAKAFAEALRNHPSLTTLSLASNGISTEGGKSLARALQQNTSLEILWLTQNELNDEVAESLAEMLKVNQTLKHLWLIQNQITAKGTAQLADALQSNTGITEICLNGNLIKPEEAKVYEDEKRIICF

[12] = HEK-293T viability loss after treatment – luminescence, T-cell screen hits, cytotoxicity control for TCR NF-kB inhibitor project, dose response (AID 489026); assay type: functional, cell-based;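 further: cells exposed to compound about 14 hours before the viability readout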
HEK293 [13] = assay: cells; details: Homo sapiens
[14] = Luminescence Cell-Based Dose Response HTS to Identify Activators of Luciferase Translation or Activity in H4 […] Cells. [Related pubchem assays: 1829 (Project Summary), 1814 (Primary HTS)]; assay type: functional
H4 = assay: Luminescence Cell-Based Dose Response HTS to Identify Activators of 5'UTR Stem-Loop Driven Prion Protein mRNA Translation in H4 Neuroglioblastoma Cells. [Related pubchem assays: 1829 (Project Summary), 1814 (Primary HTS)]; assay type: functional; details: Homo sapiens
Coagulation factor XII = molecular target: T5, Coagulation factor XII (Homo sapiens, UniProt P00748); assay type: functional;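 further: activated factor XIIa alpha cleaving a fluorogenic AMC peptide substrate; inhibitor potency from loss of enzyme activity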
T5 sequence (P00748 whole entry): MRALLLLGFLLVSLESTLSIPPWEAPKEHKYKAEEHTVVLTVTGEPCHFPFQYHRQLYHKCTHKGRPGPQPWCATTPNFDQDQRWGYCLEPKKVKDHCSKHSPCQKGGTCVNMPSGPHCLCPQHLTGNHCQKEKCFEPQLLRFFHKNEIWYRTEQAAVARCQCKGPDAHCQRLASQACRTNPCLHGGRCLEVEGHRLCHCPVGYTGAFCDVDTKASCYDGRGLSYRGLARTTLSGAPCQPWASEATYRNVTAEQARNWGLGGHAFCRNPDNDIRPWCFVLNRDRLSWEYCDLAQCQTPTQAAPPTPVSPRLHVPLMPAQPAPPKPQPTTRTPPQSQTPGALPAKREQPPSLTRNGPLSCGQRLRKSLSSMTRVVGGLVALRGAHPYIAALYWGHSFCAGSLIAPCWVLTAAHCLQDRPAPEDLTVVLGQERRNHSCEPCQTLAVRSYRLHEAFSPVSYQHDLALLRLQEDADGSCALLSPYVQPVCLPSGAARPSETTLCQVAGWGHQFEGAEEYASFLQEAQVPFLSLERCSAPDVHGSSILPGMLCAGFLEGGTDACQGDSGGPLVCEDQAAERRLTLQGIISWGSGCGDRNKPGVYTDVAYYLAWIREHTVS

BJ [15] = assay: BJ-TERT fibroblast viability loss – cell-based, RAS-independent, luminescence, dose response (AID 1933); assay type: functional; details: Homo sapiens
BJ [16] = assay: cells; assay type: functional, cell-based; details: Homo sapiens
BJ [17] = assay: BJ-TERT-LT-ST fibroblast viability loss – cell-based, RAS-independent, luminescence, dose response (AID 1935); assay type: functional; details: Homo sapiens;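 further: BJ fibroblasts immortalized with TERT plus LT and ST oncogenes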
[18] = DRD fibroblast viability loss – cell-based, non-viral oncogenic, luminescence, dose response (AID 1934); assay type: functional; details: Homo sapiens
INS1 = assay: INS-1E survival protection against cytokine death – cell-based, luminescence, retest, dose response (AID 449756); assay type: functional; details: Rattus norvegicus;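 further: cell death triggered by IL-1 beta plus TNF-alpha plus IFN-gamma mixture; protective hits raise ATP signal compared with cytokine alone wells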

Nucleotide-binding oligomerization domain-containing protein 2, sequence (Q9HC29 whole entry, the tested form may be a part): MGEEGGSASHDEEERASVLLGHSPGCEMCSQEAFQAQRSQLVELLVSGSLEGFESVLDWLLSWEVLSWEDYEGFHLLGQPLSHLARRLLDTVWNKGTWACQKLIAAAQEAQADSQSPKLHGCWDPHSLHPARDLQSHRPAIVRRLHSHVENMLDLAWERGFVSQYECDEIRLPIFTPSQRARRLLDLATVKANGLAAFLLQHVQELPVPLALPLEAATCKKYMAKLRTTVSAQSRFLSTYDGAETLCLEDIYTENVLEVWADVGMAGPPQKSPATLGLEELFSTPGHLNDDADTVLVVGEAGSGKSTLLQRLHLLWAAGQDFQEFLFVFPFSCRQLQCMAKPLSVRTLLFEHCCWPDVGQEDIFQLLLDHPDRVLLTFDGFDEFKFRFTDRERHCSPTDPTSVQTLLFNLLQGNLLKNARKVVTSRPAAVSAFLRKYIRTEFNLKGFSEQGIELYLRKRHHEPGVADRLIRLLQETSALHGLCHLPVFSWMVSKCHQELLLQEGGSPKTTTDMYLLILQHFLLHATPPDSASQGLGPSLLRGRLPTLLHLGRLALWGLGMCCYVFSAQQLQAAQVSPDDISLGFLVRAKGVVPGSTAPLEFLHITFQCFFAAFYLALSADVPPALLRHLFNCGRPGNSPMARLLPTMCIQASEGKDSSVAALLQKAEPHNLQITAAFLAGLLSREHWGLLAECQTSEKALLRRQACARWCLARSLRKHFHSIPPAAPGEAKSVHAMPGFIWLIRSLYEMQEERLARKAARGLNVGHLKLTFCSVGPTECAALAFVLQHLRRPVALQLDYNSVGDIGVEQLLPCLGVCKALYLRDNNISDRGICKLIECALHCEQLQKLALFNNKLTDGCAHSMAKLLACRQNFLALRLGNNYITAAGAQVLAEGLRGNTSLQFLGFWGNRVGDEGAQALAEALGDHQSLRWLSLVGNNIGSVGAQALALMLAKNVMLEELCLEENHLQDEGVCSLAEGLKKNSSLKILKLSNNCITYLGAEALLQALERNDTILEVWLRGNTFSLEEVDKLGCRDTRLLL
Glucose-6-phosphate 1-dehydrogenase, sequence (P11413 whole entry): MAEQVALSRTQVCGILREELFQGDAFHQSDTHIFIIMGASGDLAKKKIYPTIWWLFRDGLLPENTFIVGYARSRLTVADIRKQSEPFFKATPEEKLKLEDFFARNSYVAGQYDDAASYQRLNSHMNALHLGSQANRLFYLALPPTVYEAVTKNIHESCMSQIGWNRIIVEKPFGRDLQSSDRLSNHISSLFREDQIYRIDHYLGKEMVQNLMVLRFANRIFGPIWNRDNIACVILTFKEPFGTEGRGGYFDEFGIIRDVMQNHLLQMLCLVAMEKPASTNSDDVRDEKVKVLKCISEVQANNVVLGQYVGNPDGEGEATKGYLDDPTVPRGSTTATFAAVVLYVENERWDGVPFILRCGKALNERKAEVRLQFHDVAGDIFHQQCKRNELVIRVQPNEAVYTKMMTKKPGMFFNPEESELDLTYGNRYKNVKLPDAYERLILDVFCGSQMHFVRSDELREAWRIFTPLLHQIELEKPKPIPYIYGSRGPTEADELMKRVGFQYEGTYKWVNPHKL
Trypsin, sequence (P00761 whole entry): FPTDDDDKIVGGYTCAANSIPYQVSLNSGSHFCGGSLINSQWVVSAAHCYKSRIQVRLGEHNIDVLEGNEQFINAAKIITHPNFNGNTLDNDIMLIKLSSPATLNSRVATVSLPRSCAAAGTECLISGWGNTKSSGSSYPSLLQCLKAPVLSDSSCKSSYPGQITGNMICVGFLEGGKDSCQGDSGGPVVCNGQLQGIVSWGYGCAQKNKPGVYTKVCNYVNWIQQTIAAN
Tumor necrosis factor, sequence (P01375 whole entry, the tested form may be a part): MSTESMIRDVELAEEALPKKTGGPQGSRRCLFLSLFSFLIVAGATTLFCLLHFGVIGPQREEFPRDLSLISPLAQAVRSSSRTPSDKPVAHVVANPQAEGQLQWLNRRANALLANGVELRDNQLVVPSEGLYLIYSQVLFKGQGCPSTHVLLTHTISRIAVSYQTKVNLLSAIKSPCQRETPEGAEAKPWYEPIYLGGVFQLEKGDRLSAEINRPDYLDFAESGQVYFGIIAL

## C=CCOc1c(Cl)cc(CNc2ccc(N(C)C)cc2)cc1OC
[1]
  IC50: > 80 µM (inactive)

## O=C(/C=C/c1cn(-c2ccccc2)nc1-c1cccs1)NCCN1CCOCC1
CAAX prenyl protease 2 [2]
  AC50: 10.8 µM (active)
CAAX prenyl protease 2 [3]
  AC50: > 100 µM (inactive)

## Cc1cccn2c(CNCCc3ccccn3)c(C(=O)N3CCOCC3)nc12
[4]
  EC50: 1680 nM (active)

## Oc1ccc(-c2nccc(-c3ccccn3)n2)cc1
HeLa
  AC50: 55.2 µM (active)

## COc1ccc(-c2c[nH]nc2-c2ccc(OCc3ccccc3F)cc2O)cc1OC
HEK293 [5]
  EC50: 9.16 µM (active)
HEK293 [6]
  IC50: 6.09 µM (active)
HEK293 [7]
  IC50: 11.7 µM (active)
[8]
  EC50: > 20 µM (inactive)
HEK293 [9]
  IC50: 7.5 µM (active)
HEK293 [10]
  IC50: > 20 µM (inactive)

## CC(C)OCCCNC(=O)c1c(N)n(CC2CCCO2)c2nc3ccccc3nc12 (stereo unspecified)
Trypsin
  AC50: 5.99 µM (active)
CAAX prenyl protease 2 [2]
  AC50: 15 µM (active)
CAAX prenyl protease 2 [3]
  AC50: 9.35 µM (active)

## CCn1c(CN2CCN(Cc3ccc(C)cc3)C(CCO)C2)nc2ccccc21 (stereo unspecified)
[4]
  EC50: 668 nM (active)

## CC(=O)c1ccc(N2Cc3ccccc3/C2=N\C(=O)c2cccs2)cc1
HeLa
  AC50: 76.6 µM (active)

## CCc1cc(OCCN(C)C)ccc1Cl
[4]
  EC50: 267 nM (active)

## Cc1cccc(C(=O)Nc2nnc(S(=O)(=O)N3CCCCCC3)s2)c1
[1]
  IC50: > 80 µM (inactive)

## O=C(COc1ccc2c(-c3ccccc3)cc(=O)oc2c1)Nc1cccnc1
HEK293 [5]
  EC50: 0.75 µM (active)
HEK293 [6]
  IC50: 2.21 µM (active)
HEK293 [7]
  IC50: 18.7 µM (active)
[8]
  EC50: > 20 µM (inactive)
HEK293 [9]
  IC50: 10.8 µM (inactive)
HEK293 [10]
  IC50: > 20 µM (inactive)
Tumor necrosis factor
  IC50: 4.59 µM (active)
[11]
  IC50: 3.17 µM (active)
[12]
  IC50: > 80 µM (inactive)
HEK293 [13]
  IC50: > 20 µM (inactive)

## c1ccc(CSc2ccc(-c3ccc4c(c3)OCO4)nn2)cc1
[14]
  EC50: 4.69 µM (active)
H4
  EC50: > 120 µM (not active)
HeLa
  AC50: 112 µM (active)

## Cc1ncc(CN2CCCC(C(=O)c3ccc(C(C)(C)C)cc3)C2)s1 (stereo unspecified)
Coagulation factor XII
  IC50: > 50 µM (inactive)

## C=CCn1c(SCC(=O)Nc2cccnc2Cl)nnc1-c1ccc(Cl)cc1
Coagulation factor XII
  IC50: > 50 µM (inactive)

## CCn1cc(CN2CCCC(C(=O)Nc3ccc(-c4nc5ccccc5[nH]4)cc3)C2)c(C)n1 (stereo unspecified)
[4]
  EC50: 267 nM (active)

## COc1cc(/C=C2\CC(C(C)(C)C)C/C(=C\c3cc(OC)c(OC)c(OC)c3)C2=O)cc(OC)c1OC (stereo unspecified)
HEK293 [5]
  EC50: 5.25 µM (active)
BJ [15]
  EC50: 4.94 µM (active)
HEK293 [6]
  IC50: 4.76 µM (active)
BJ [16]
  EC50: 12 µM (inconclusive)
HEK293 [7]
  IC50: 18.3 µM (active)
[8]
  EC50: 8.66 µM (active)
HEK293 [9]
  IC50: 4.98 µM (active)
HEK293 [10]
  IC50: > 20 µM (inactive)
BJ [17]
  EC50: 5.18 µM (inconclusive)
[18]
  EC50: 4.23 µM (active)
INS1
  AC50: 5.52 µM (active)

## CC(=O)Nc1ccc(S(=O)(=O)NCCNc2ccccc2[N+](=O)[O-])cc1
Coagulation factor XII
  IC50: > 50 µM (inactive)

From ChEMBL document CHEMBL1201862, “PubChem BioAssay data set” (2004)
